Each block holds one compound with its values, some of them ahead of it.
Tests used:
Test in all cases: Caliper, Mobility shift assay off-chip
[1] = molecular target: RPS6KA3 KD1 KD2 (human) (UniProt P51812)
[2] = molecular target: TSSK2 (human) (UniProt Q96PF2)
[3] = molecular target: MAPKAPK3 (human) (UniProt Q16644)
[4] = molecular target: LYN (human) (UniProt P07948)
[5] = tested on: ABL1 (human), P00519 [Q252H]
[6] = molecular target: TSSK1B (human) (UniProt Q9BXA7)
[7] = molecular target: PIM1 (human) (UniProt P11309)
PIM1 (human), sequence (P11309 whole entry, looked up): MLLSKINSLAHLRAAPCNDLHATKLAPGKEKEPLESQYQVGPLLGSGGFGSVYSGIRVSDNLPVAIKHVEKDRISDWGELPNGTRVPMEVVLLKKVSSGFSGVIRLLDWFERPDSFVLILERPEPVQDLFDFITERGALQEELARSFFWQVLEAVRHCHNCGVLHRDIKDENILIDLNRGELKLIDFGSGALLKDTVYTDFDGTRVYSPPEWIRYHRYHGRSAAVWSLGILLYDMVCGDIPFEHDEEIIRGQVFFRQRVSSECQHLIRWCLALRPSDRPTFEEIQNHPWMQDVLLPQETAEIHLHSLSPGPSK

[8] = molecular target: KDR (human) (UniProt P35968)
[9] = molecular target: PRKCB1 (human) (UniProt P05771)
[10] = molecular target: RPS6KA1 KD1 KD2 (human) (UniProt Q15418)
RPS6KA1 KD1 KD2 (human), sequence (Q15418 whole entry, looked up): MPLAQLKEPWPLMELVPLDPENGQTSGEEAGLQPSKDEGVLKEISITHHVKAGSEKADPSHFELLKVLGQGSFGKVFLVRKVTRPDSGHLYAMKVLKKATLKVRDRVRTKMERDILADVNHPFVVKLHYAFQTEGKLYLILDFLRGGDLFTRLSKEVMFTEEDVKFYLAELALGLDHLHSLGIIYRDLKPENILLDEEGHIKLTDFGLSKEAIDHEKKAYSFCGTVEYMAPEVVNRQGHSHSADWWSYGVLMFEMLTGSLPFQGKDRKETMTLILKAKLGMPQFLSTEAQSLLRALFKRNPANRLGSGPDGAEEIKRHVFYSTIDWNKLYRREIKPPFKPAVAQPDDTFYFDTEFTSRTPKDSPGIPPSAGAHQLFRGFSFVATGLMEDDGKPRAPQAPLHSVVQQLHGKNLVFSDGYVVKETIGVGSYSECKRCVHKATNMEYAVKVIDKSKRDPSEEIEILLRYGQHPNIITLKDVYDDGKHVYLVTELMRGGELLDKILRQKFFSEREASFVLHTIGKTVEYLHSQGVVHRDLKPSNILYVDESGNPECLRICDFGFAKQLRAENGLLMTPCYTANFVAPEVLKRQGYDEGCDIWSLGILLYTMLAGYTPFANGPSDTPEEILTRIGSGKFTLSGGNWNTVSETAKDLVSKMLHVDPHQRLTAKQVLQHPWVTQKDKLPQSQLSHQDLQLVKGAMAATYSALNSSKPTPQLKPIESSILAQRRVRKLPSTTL

[11] = molecular target: MAPK3 (human) (UniProt P27361)
[12] = molecular target: RPS6KA5 KD1 KD2 (human) (UniProt O75582)
RPS6KA5 KD1 KD2 (human), sequence (O75582 whole entry, looked up): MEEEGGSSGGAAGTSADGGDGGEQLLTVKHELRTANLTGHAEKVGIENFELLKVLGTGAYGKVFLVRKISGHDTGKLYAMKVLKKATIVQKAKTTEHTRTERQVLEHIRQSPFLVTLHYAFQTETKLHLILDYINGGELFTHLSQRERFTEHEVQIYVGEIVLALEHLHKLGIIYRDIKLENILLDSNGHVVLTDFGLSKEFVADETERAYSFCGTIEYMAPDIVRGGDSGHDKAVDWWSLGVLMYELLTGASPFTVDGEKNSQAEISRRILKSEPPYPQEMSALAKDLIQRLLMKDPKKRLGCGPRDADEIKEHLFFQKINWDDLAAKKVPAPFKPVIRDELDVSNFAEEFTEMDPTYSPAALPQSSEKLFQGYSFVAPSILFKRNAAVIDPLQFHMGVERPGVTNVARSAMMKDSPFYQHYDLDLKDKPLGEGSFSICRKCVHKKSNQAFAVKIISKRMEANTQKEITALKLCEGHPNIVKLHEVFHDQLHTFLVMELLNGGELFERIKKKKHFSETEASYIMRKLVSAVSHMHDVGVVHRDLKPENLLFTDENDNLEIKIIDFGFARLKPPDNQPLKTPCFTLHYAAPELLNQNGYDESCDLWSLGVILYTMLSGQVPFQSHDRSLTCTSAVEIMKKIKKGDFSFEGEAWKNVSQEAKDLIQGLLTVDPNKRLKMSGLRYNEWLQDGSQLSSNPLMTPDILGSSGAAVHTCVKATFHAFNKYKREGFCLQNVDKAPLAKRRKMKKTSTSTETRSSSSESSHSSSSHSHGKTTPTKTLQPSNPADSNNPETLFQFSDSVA

[13] = molecular target: FLT3 (human) (UniProt P36888)
[14] = molecular target: PRKCA (human) (UniProt P17252)
[15] = molecular target: FYN (human) (UniProt P06241)
[16] = tested on: ABL1 (human), P00519 [T315I]
[17] = molecular target: MARK2 (human) (UniProt Q7KZI7)
MARK2 (human), sequence (Q7KZI7 whole entry, looked up): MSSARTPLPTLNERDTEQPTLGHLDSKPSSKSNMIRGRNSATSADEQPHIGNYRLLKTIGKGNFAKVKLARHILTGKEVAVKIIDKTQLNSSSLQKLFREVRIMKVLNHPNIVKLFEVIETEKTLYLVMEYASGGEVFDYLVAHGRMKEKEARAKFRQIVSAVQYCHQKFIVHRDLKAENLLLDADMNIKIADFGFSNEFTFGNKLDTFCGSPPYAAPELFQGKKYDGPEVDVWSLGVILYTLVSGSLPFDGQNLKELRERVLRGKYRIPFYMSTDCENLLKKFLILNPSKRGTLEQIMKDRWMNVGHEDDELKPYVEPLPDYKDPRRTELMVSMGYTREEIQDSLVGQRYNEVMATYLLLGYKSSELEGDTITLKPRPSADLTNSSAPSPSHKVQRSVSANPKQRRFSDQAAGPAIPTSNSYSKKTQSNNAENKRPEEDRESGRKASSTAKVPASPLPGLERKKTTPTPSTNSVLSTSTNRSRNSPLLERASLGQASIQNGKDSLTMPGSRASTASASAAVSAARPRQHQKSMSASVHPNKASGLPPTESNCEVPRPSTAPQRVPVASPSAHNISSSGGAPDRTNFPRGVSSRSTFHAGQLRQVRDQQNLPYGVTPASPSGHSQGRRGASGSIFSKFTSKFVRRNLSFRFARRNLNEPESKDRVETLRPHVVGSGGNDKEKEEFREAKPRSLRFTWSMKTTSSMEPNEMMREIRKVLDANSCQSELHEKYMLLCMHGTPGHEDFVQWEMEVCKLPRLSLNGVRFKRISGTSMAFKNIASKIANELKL

[18] = molecular target: BRSK2 (human) (UniProt Q8IWQ3)
[19] = molecular target: MAPK13 (human) (UniProt O15264)
[20] = molecular target: PIM2 (human) (UniProt Q9P1W9)
[21] = molecular target: BRSK1 (human) (UniProt Q8TDC3)
[22] = molecular target: CDK2 (human) (UniProt P24941)
[23] = molecular target: FGFR2 (human) (UniProt P21802)
[24] = molecular target: CAMK2B (human) (UniProt Q13554)
[25] = molecular target: MAPK14 (human) (UniProt Q16539)
[26] = molecular target: MAPKAPK2 (human) (UniProt P49137)
MAPKAPK2 (human), sequence (P49137 whole entry, looked up): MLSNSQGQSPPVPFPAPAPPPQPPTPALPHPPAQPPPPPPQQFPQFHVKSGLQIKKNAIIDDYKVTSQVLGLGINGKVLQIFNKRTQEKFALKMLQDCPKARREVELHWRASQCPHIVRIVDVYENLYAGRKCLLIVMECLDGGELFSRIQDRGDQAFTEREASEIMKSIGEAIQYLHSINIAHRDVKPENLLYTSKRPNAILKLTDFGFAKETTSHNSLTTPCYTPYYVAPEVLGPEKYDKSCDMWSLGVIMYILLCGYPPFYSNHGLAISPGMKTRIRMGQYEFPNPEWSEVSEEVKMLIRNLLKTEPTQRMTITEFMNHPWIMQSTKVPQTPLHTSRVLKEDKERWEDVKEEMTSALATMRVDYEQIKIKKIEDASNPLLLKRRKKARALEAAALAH

[27] = molecular target: AKT2 (human) (UniProt P31751)
AKT2 (human), sequence (P31751 whole entry, looked up): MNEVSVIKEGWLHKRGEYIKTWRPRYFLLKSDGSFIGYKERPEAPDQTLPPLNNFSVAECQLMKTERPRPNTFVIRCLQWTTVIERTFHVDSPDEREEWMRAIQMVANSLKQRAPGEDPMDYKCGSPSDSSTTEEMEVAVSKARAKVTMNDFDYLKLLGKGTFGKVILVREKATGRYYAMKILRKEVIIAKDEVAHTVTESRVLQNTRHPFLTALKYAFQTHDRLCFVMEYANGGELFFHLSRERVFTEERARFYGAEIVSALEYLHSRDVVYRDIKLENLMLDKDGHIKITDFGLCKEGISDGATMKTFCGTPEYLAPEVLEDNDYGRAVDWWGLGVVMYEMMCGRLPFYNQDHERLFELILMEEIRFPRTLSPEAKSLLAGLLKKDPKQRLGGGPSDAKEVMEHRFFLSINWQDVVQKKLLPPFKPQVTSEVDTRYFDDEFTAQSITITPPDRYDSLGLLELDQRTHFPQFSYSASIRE

[28] = molecular target: BTK (human) (UniProt Q06187)
BTK (human), sequence (Q06187 whole entry, looked up): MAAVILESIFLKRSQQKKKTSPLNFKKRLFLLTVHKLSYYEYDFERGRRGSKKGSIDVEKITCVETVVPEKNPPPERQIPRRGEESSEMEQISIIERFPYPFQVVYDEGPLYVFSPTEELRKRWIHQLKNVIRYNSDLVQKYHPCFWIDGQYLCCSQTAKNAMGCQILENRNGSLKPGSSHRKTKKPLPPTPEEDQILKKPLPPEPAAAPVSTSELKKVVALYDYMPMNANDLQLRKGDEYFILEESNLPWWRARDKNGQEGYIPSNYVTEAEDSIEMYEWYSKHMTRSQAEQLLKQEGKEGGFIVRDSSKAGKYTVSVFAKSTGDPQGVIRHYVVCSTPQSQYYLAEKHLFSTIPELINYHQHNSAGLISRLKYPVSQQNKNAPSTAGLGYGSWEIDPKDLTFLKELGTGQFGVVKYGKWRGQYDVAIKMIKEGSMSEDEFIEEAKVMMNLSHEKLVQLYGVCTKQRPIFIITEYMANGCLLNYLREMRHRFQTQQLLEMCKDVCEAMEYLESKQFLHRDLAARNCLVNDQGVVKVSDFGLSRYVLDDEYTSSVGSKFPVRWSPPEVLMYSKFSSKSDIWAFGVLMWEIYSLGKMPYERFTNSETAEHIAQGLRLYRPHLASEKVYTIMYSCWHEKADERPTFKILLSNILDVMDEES

[29] = molecular target: RPS6KA2 KD1 KD2 (human) (UniProt Q15349)
[30] = molecular target: AURKA (human) (UniProt O14965)
[31] = molecular target: PRKCB2 (human) (UniProt P05771)
[32] = molecular target: CAMK4 (human) (UniProt Q16566)
CAMK4 (human), sequence (Q16566 whole entry, looked up): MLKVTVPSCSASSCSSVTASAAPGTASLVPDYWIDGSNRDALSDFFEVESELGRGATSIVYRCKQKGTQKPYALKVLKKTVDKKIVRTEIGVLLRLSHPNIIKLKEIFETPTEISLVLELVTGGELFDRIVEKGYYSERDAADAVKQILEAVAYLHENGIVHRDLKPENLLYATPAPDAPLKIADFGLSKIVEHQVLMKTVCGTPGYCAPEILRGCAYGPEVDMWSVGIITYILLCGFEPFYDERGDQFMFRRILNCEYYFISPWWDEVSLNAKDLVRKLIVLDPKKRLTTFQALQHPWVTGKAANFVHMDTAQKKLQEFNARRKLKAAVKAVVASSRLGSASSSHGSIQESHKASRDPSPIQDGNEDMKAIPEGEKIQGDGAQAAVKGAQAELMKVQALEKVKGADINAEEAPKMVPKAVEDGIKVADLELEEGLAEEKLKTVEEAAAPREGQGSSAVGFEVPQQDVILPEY

[33] = molecular target: PRKCE (human) (UniProt Q02156)

TSSK1B (human), sequence (Q9BXA7 whole entry, looked up): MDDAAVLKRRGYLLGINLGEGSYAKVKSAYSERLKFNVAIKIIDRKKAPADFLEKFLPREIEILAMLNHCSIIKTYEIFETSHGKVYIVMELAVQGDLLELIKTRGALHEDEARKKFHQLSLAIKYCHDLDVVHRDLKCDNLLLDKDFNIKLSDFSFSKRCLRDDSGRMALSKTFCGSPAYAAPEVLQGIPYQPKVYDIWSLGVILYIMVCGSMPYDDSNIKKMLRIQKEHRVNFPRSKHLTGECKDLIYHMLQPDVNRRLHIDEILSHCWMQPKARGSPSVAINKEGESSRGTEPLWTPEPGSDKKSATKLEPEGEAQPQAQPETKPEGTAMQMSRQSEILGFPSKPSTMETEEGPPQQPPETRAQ

inhibition ([1]; compound 0.1 µM): 0.7%
inhibition ([1]; compound 1.0 µM): 62.5%
inhibition ([2]; compound 0.1 µM): -2.3%
inhibition ([2]; compound 1.0 µM): 1.3%
inhibition ([3]; compound 0.1 µM): -0.3%
inhibition ([3]; compound 1.0 µM): 0.5%
inhibition ([4]; compound 0.1 µM): 3.5%
inhibition ([4]; compound 1.0 µM): -3.2%
inhibition ([5]; compound 0.1 µM): -1.7%
inhibition ([5]; compound 1.0 µM): 8.1%
inhibition ([6]; compound 0.1 µM): 5.4%
inhibition ([6]; compound 1.0 µM): -1.6%
inhibition ([7]; compound 0.1 µM): -2.4%
inhibition ([7]; compound 1.0 µM): -4.4%
inhibition ([8]; compound 0.1 µM): 4.9%
inhibition ([8]; compound 1.0 µM): 16.8%
inhibition ([9]; compound 0.1 µM): 1.2%
inhibition ([9]; compound 1.0 µM): -12.2%
inhibition ([10]; compound 0.1 µM): -2.2%
inhibition ([10]; compound 1.0 µM): 4%
inhibition ([11]; compound 0.1 µM): 1.7%
inhibition ([11]; compound 1.0 µM): -0.5%
inhibition ([12]; compound 0.1 µM): -5.3%
inhibition ([12]; compound 1.0 µM): -0.9%
inhibition ([13]; compound 0.1 µM): -5.8%
inhibition ([13]; compound 1.0 µM): -4%
inhibition ([14]; compound 0.1 µM): -9.4%
inhibition ([14]; compound 1.0 µM): 15.8%
inhibition ([15]; compound 0.1 µM): -4.2%
inhibition ([15]; compound 1.0 µM): 2.7%
inhibition ([16]; compound 0.1 µM): 2.7%
inhibition ([16]; compound 1.0 µM): 1.3%
inhibition ([17]; compound 0.1 µM): -4.6%
inhibition ([17]; compound 1.0 µM): -1.8%
inhibition ([18]; compound 0.1 µM): 3.4%
inhibition ([18]; compound 1.0 µM): -3.3%
inhibition ([19]; compound 0.1 µM): -1.8%
inhibition ([19]; compound 1.0 µM): 3.9%
inhibition ([20]; compound 0.1 µM): -0.1%
inhibition ([20]; compound 1.0 µM): -3.2%
inhibition ([21]; compound 0.1 µM): -1.6%
inhibition ([21]; compound 1.0 µM): 1.6%
inhibition ([22]; compound 0.1 µM): -10%
inhibition ([22]; compound 1.0 µM): -6.6%
inhibition ([23]; compound 0.1 µM): 1.4%
inhibition ([23]; compound 1.0 µM): 7.8%
inhibition ([24]; compound 0.1 µM): -1.6%
inhibition ([24]; compound 1.0 µM): 0.8%
inhibition ([25]; compound 0.1 µM): -10.6%
inhibition ([25]; compound 1.0 µM): 5.1%
inhibition ([26]; compound 0.1 µM): -1.1%
inhibition ([26]; compound 1.0 µM): 0.8%
inhibition ([27]; compound 0.1 µM): -1.5%
inhibition ([27]; compound 1.0 µM): 3.1%
inhibition ([28]; compound 0.1 µM): 2.1%
inhibition ([28]; compound 1.0 µM): 1.1%
inhibition ([29]; compound 0.1 µM): -4.2%
inhibition ([29]; compound 1.0 µM): -2.5%
inhibition ([30]; compound 0.1 µM): 3.7%
inhibition ([30]; compound 1.0 µM): 22.4%
inhibition ([31]; compound 0.1 µM): 3.3%
inhibition ([31]; compound 1.0 µM): -13.3%
inhibition ([32]; compound 0.1 µM): -1.7%
inhibition ([32]; compound 1.0 µM): -3.4%
inhibition ([33]; compound 0.1 µM): 9.3%
inhibition ([33]; compound 1.0 µM): -0.4%
SMILES: O=C(CCc1ccc2ccc3ncc(C4CCNCC4)cc3c(=O)c2c1)NCc1ccccn1

inhibition ([1]; compound 0.1 µM): -1.9%
inhibition ([1]; compound 1.0 µM): 12.9%
inhibition ([2]; compound 0.1 µM): -3.3%
inhibition ([2]; compound 1.0 µM): -0.8%
inhibition ([3]; compound 0.1 µM): -0.1%
inhibition ([3]; compound 1.0 µM): -2.3%
inhibition ([4]; compound 0.1 µM): 2.5%
inhibition ([4]; compound 1.0 µM): 25.1%
inhibition ([5]; compound 0.1 µM): 6.9%
inhibition ([5]; compound 1.0 µM): 51.8%
inhibition ([6]; compound 0.1 µM): -4.8%
inhibition ([6]; compound 1.0 µM): 8.1%
inhibition ([7]; compound 0.1 µM): -2.7%
inhibition ([7]; compound 1.0 µM): 2.1%
inhibition ([8]; compound 0.1 µM): 33.2%
inhibition ([8]; compound 1.0 µM): 93.1%
inhibition ([9]; compound 0.1 µM): -7.7%
inhibition ([9]; compound 1.0 µM): 8.8%
inhibition ([10]; compound 0.1 µM): -2.7%
inhibition ([10]; compound 1.0 µM): 2.1%
inhibition ([11]; compound 0.1 µM): 0.9%
inhibition ([11]; compound 1.0 µM): -7.3%
inhibition ([12]; compound 0.1 µM): -3.5%
inhibition ([12]; compound 1.0 µM): 8.1%
inhibition ([13]; compound 0.1 µM): 13.7%
inhibition ([13]; compound 1.0 µM): 62.9%
inhibition ([14]; compound 0.1 µM): 0.1%
inhibition ([14]; compound 1.0 µM): -10.6%
inhibition ([15]; compound 0.1 µM): -0.3%
inhibition ([16]; compound 0.1 µM): 3.3%
inhibition ([16]; compound 1.0 µM): 41.1%
inhibition ([17]; compound 0.1 µM): -3.7%
inhibition ([17]; compound 1.0 µM): 12.6%
inhibition ([18]; compound 0.1 µM): -0.7%
inhibition ([18]; compound 1.0 µM): 6.6%
inhibition ([19]; compound 0.1 µM): -0.3%
inhibition ([19]; compound 1.0 µM): 9.8%
inhibition ([20]; compound 0.1 µM): 1.2%
inhibition ([20]; compound 1.0 µM): 5.1%
inhibition ([21]; compound 0.1 µM): 3.3%
inhibition ([21]; compound 1.0 µM): 0.5%
inhibition ([22]; compound 0.1 µM): 3.1%
inhibition ([22]; compound 1.0 µM): 4.8%
inhibition ([23]; compound 0.1 µM): 29.4%
inhibition ([23]; compound 1.0 µM): 76.6%
inhibition ([24]; compound 0.1 µM): 5.9%
inhibition ([24]; compound 1.0 µM): 12.1%
inhibition ([25]; compound 0.1 µM): -4.5%
inhibition ([25]; compound 1.0 µM): 1.9%
inhibition ([26]; compound 0.1 µM): -0.4%
inhibition ([26]; compound 1.0 µM): 2.9%
inhibition ([27]; compound 0.1 µM): -4.1%
inhibition ([27]; compound 1.0 µM): -15.8%
inhibition ([28]; compound 0.1 µM): 4.7%
inhibition ([28]; compound 1.0 µM): 4.9%
inhibition ([29]; compound 0.1 µM): -5.9%
inhibition ([29]; compound 1.0 µM): 9.6%
inhibition ([30]; compound 0.1 µM): 39.7%
inhibition ([30]; compound 1.0 µM): 87.5%
inhibition ([31]; compound 0.1 µM): 2.8%
inhibition ([31]; compound 1.0 µM): 8.1%
inhibition ([32]; compound 0.1 µM): -0.2%
inhibition ([32]; compound 1.0 µM): 8%
inhibition ([33]; compound 0.1 µM): 8.8%
inhibition ([33]; compound 1.0 µM): 3.9%
SMILES: CN(c1ccc2ccc3ncc(-c4cnn(C)c4)cc3c(=O)c2c1)S(=O)(=O)NCc1ccccn1

inhibition ([1]; compound 0.1 µM): -9.2%
inhibition ([1]; compound 1.0 µM): -1.3%
inhibition ([2]; compound 1.0 µM): -7.1%
inhibition ([3]; compound 0.1 µM): 1.8%
inhibition ([3]; compound 1.0 µM): -5.4%
inhibition ([4]; compound 0.1 µM): -7.4%
inhibition ([4]; compound 1.0 µM): 5.9%
inhibition ([5]; compound 0.1 µM): 4.6%
inhibition ([5]; compound 1.0 µM): 9.3%
inhibition ([6]; compound 0.1 µM): 19.8%
inhibition ([6]; compound 1.0 µM): -1.7%
inhibition ([7]; compound 0.1 µM): -3.6%
inhibition ([7]; compound 1.0 µM): -16.7%
inhibition ([8]; compound 0.1 µM): 7.9%
inhibition ([8]; compound 1.0 µM): 28.2%
inhibition ([9]; compound 1.0 µM): 0.9%
inhibition ([10]; compound 0.1 µM): -15.2%
inhibition ([10]; compound 1.0 µM): -0.8%
inhibition ([11]; compound 0.1 µM): -10.8%
inhibition ([11]; compound 1.0 µM): -1.3%
inhibition ([12]; compound 0.1 µM): -3.5%
inhibition ([12]; compound 1.0 µM): -7.4%
inhibition ([13]; compound 0.1 µM): 1.3%
inhibition ([13]; compound 1.0 µM): 24.2%
inhibition ([14]; compound 0.1 µM): 21.9%
inhibition ([14]; compound 1.0 µM): -3%
inhibition ([15]; compound 0.1 µM): -11.5%
inhibition ([15]; compound 1.0 µM): -2.5%
inhibition ([16]; compound 0.1 µM): 7.1%
inhibition ([16]; compound 1.0 µM): 4.4%
inhibition ([17]; compound 0.1 µM): -1.3%
inhibition ([17]; compound 1.0 µM): 6.5%
inhibition ([18]; compound 0.1 µM): 1.5%
inhibition ([18]; compound 1.0 µM): 2.5%
inhibition ([19]; compound 0.1 µM): -7.9%
inhibition ([19]; compound 1.0 µM): -7.1%
inhibition ([20]; compound 0.1 µM): -2.1%
inhibition ([20]; compound 1.0 µM): 4.7%
inhibition ([21]; compound 0.1 µM): -11.7%
inhibition ([21]; compound 1.0 µM): 0.3%
inhibition ([22]; compound 0.1 µM): -6.3%
inhibition ([22]; compound 1.0 µM): -3.4%
inhibition ([23]; compound 0.1 µM): 18.3%
inhibition ([23]; compound 1.0 µM): 64.7%
inhibition ([24]; compound 0.1 µM): 20.2%
inhibition ([25]; compound 0.1 µM): 5.3%
inhibition ([25]; compound 1.0 µM): -2.7%
inhibition ([26]; compound 0.1 µM): -14.7%
inhibition ([26]; compound 1.0 µM): -4.4%
inhibition ([27]; compound 0.1 µM): -0.1%
inhibition ([27]; compound 1.0 µM): -0.5%
inhibition ([28]; compound 0.1 µM): -2.1%
inhibition ([28]; compound 1.0 µM): 22%
inhibition ([29]; compound 0.1 µM): 6.3%
inhibition ([29]; compound 1.0 µM): 8.8%
inhibition ([30]; compound 0.1 µM): 15.8%
inhibition ([30]; compound 1.0 µM): 48%
inhibition ([31]; compound 0.1 µM): -4.2%
inhibition ([31]; compound 1.0 µM): -10.6%
inhibition ([32]; compound 0.1 µM): -0.1%
inhibition ([32]; compound 1.0 µM): 3.5%
inhibition ([33]; compound 0.1 µM): 6.5%
inhibition ([33]; compound 1.0 µM): 1.1%
SMILES: Cn1cc(-c2cnc3ccc4ccc(CS(=O)(=O)CCc5ccccn5)cc4c(=O)c3c2)cn1
